Assays:
Conditions in all cases: compound at 10 μM
Human Melanocortin (MC3) = molecular target: T1, Human Melanocortin (MC3) (Homo sapiens, UniProt P41968); experiment: Radioligand binding, human melanocortin MC3 membranes, FlashPlate, [125I]-NDP-αMSH
T1 construct: purchased Perkin Elmer Biosignal
Summary of the method: (§1)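 Cloned human receptor membranes were coated onto FlashPlate wells and incubated with radioligand and compound (added from a 0.5 mM DMSO daughter plate) for 1 hour at room temperature in the dark. Scintillation counting gave percent inhibition, with DMSO defining total and reference ligand defining non-specific binding.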

Human neurokinin (NK1) = molecular target: T2, Human neurokinin (NK1) (Homo sapiens, UniProt P25103); experiment: Radioligand binding, human neurokinin NK1 membranes, filtration, [125I]-Substance P
T2 construct: purchased Perkin Elmer Biosignal
Summary of the method: (§2)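 Percent inhibition of radioligand binding measured on recombinant human membranes: NK1 with [125I]-Substance P, KOP with [3H]-Diprenorphine. Incubation 1 h at room temperature, then harvest onto 0.3% PEI-soaked filters, cold Tris-HCl pH 7.4 washes and scintillation counting; non-specific binding from reference ligand wells.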

Human melanocortin (MC5) = molecular target: T3, Human melanocortin (MC5) (Homo sapiens, UniProt P33032); experiment: Radioligand binding, human melanocortin MC5 membranes, FlashPlate, [125I]-NDP-αMSH
T3 construct: purchased Perkin Elmer Biosignal
Summary of the method: as §1

Human δ-opioid (DOP) = molecular target: T4, Human δ-opioid (DOP) (Homo sapiens, UniProt P41143); experiment: Radioligand binding, human δ-opioid (DOP) membranes, FlashPlate, [3H]-Bremazocine
T4 construct: purchased Perkin Elmer Biosignal
Summary of the method: as §1

Human Melanocortin (MC4) = molecular target: T5, Human Melanocortin (MC4) (Homo sapiens, UniProt P32245); experiment: Radioligand binding, human melanocortin MC4 membranes, FlashPlate, [125I]-NDP-αMSH
T5 construct: purchased Perkin Elmer Biosignal
Summary of the method: as §1

[1] = molecular target: T6, Human neuropeptide Y (NPY-Y1) (Homo sapiens, UniProt P25929); experiment: Radioligand binding, human neuropeptide Y NPY-Y1 membranes, FlashPlate, [125I]-PYY
T6 construct: purchased Perkin Elmer Biosignal
T6 sequence (P25929 1-384): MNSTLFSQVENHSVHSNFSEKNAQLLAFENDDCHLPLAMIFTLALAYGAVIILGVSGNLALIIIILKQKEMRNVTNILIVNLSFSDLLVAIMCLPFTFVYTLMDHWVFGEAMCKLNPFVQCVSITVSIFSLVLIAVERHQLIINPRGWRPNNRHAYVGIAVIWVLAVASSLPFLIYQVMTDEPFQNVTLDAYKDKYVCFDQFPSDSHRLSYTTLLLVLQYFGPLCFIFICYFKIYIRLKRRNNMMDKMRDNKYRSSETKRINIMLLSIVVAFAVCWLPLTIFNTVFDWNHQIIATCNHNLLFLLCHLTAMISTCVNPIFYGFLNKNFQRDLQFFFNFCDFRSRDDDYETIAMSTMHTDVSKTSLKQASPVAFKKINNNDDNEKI
Summary of the method: as §1

Mouse urotensin (mUR2) = molecular target: T7, Mouse urotensin (mUR2) (Mus musculus, UniProt Q8VIH9); experiment: Radioligand binding, mouse urotensin mUR2 membranes, FlashPlate, [125I]-Urotensin II
T7 construct: purchased Perkin Elmer Biosignal
T7 sequence (Q8VIH9 1-385): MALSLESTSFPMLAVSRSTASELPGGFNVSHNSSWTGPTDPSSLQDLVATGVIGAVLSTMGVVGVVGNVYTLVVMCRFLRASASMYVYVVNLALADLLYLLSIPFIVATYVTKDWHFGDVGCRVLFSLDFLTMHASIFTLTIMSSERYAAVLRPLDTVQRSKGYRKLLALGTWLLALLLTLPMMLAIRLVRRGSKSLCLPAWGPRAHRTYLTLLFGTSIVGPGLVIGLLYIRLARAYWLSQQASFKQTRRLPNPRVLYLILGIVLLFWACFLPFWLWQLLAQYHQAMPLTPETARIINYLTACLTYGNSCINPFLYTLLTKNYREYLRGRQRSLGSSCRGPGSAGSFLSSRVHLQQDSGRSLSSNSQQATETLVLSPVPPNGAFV
Summary of the method: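 Cloned mouse urotensin (mUR2) receptor membranes from Perkin Elmer Biosignal were immobilized in FlashPlate microplates using a proprietary coating. Each well got 19.5 μl buffer, then 0.5 μl of DMSO, reference ligand, or compound. Adding 5 μl of [125I]-Urotensin II, diluted to 5× final concentration in binding buffer, started binding. Plates were sealed with TopSeal-A and incubated 1 hour at room temperature in the dark. Wells were counted for 30 seconds each on a TopCount after a 60-second delay, and percentage inhibition was calculated.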

Human μ-opioid (MOP) = molecular target: T8, Human μ-opioid (MOP) (Homo sapiens, UniProt P35372); experiment: Radioligand binding, human μ-opioid (MOP) membranes, FlashPlate, [3H]-Naloxone
T8 construct: purchased Perkin Elmer Biosignal
Summary of the method: as §1

Human κ-Opioid (KOP) = molecular target: T9, Human κ-Opioid (KOP) (Homo sapiens, UniProt P41145); experiment: Radioligand binding, human κ-opioid (KOP) membranes, filtration, [3H]-Diprenorphine
T9 construct: purchased Perkin Elmer Biosignal
Summary of the method: as §2

[2] = molecular target: T10, Human melanin-concentrating hormone (MCH1) (Homo sapiens, UniProt Q99705); experiment: Radioligand binding, human melanin-concentrating hormone MCH1 membranes, FlashPlate, [125I]-S36057
T10 construct: purchased Perkin Elmer Biosignal
Summary of the method: as §1

Human opioid (ORL1) = molecular target: T11, Human opioid (ORL1) (Homo sapiens, UniProt P41146); experiment: Radioligand binding, human opioid ORL1 membranes, FlashPlate, [125I]-Nociceptin
T11 construct: purchased Perkin Elmer Biosignal
Summary of the method: as §1

T10 sequence (Q99705 whole entry): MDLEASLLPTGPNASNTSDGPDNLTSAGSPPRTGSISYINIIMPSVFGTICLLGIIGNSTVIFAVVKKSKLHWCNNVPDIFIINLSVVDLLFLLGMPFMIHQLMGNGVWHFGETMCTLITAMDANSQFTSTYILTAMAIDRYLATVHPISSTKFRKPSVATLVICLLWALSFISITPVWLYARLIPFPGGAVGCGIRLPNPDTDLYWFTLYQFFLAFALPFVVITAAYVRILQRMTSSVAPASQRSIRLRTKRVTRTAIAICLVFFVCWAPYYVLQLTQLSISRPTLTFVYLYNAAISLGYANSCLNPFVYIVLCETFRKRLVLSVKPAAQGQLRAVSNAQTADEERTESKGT
T8 sequence (P35372 whole entry): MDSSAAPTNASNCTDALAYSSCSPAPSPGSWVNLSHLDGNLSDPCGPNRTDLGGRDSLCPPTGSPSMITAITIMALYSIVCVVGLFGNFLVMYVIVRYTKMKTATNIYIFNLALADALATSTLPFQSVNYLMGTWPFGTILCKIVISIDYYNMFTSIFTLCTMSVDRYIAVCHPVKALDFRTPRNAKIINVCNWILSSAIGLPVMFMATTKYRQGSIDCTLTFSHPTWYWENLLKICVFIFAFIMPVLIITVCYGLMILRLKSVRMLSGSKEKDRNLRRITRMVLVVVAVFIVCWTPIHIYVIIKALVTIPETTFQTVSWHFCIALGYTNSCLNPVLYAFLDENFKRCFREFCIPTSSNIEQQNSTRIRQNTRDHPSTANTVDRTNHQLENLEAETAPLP
T1 sequence (P41968 whole entry): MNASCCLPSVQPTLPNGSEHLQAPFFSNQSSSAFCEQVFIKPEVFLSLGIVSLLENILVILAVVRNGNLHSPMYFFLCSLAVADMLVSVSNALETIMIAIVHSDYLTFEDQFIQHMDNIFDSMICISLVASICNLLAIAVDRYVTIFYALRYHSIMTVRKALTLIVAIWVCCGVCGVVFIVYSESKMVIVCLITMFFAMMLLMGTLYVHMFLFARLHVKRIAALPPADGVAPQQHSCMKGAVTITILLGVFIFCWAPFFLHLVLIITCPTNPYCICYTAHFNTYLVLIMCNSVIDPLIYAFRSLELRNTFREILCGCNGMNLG
T9 sequence (P41145 whole entry): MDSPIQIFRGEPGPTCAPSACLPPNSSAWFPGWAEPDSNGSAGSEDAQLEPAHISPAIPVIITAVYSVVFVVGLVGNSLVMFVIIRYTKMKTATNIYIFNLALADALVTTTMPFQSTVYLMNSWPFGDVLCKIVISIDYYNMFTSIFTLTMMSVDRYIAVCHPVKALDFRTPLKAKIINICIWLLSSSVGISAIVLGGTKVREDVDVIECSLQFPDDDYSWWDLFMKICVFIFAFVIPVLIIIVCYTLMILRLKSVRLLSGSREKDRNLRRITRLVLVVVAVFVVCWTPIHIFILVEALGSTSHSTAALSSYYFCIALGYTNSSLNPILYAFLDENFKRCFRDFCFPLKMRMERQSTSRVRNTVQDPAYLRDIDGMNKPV
T2 sequence (P25103 whole entry): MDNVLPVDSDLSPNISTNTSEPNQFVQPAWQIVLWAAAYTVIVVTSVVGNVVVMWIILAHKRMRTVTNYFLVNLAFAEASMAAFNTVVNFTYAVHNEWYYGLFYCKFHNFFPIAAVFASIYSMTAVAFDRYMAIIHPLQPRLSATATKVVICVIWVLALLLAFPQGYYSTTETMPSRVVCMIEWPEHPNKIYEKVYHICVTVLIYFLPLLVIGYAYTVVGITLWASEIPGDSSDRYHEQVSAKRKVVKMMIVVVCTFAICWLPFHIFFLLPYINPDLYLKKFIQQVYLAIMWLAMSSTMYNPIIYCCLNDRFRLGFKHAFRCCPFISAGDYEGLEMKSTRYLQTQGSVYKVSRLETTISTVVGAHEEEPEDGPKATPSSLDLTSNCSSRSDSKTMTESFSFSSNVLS
T3 sequence (P33032 whole entry): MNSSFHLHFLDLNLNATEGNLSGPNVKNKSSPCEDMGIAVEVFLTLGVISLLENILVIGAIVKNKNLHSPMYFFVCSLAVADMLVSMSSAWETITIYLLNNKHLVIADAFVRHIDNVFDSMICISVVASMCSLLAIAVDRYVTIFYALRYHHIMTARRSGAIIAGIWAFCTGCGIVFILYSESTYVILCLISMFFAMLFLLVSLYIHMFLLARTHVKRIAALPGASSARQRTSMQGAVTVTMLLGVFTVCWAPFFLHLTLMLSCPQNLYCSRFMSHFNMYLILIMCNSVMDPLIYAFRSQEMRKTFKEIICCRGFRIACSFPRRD
T4 sequence (P41143 whole entry): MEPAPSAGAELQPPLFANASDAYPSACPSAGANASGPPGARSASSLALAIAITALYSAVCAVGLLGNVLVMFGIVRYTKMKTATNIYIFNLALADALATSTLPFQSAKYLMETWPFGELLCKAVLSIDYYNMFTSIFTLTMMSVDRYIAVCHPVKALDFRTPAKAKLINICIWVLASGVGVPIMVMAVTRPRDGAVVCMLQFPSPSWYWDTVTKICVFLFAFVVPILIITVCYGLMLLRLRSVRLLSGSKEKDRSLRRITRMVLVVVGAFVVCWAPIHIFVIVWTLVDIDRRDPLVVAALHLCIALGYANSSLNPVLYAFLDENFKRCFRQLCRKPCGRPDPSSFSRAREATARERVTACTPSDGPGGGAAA
T11 sequence (P41146 whole entry): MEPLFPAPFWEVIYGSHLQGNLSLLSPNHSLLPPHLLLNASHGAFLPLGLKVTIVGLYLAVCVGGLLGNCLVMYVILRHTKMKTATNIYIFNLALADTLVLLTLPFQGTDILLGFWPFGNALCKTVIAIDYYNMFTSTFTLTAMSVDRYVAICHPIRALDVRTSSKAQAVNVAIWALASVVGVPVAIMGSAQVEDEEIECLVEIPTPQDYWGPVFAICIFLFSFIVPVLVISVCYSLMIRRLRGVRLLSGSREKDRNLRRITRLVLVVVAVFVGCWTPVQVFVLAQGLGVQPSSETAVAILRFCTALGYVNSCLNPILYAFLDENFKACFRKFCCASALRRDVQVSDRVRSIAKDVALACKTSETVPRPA
T5 sequence (P32245 whole entry): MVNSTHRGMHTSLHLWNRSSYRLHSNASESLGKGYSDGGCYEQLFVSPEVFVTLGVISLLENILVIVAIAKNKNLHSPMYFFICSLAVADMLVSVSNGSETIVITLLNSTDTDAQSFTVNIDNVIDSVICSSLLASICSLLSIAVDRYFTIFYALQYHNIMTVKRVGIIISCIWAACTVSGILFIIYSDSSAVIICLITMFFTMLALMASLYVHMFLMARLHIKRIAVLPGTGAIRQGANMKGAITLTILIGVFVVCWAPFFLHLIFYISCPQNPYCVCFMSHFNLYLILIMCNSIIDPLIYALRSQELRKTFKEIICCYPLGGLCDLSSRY

For `COC1C(O)C(COCc2ccc3ccccc3c2)OC(OCc2ccc(Cl)cc2)C1NC(=O)C1CCN(C(=N)N)CC1` (stereo not drawn) [compound 349], the “A3: inhibition of radioligand binding, human melanocortin (MC3)” value (Human Melanocortin (MC3); [125I]-NDP-αMSH) was “− (“−” indicates less than 50% inhibition at 10 μM)”, the “A8: inhibition of radioligand binding, human neurokinin (NK1)” value (Human neurokinin (NK1); [125I]-Substance P) was “+ (“+” indicates greater than 50% inhibition at 10 μM)” and the “A5: inhibition of radioligand binding, human melanocortin (MC5)” value (Human melanocortin (MC5); [125I]-NDP-αMSH) was “+ (“+” indicates greater than 50% inhibition at 10 μM)”. The “A1: inhibition of radioligand binding, human δ-opioid (DOP)” value (Human δ-opioid (DOP); [3H]-Bremazocine) was “− (“−” indicates less than 50% inhibition at 10 μM)”, the “A4: inhibition of radioligand binding, human melanocortin (MC4)” value (Human Melanocortin (MC4); [125I]-NDP-αMSH) was “− (“−” indicates less than 50% inhibition at 10 μM)” and the “A9: inhibition of radioligand binding, human neuropeptide Y (NPY-Y1)” value ([1]; [125I]-PYY) was “− (“−” indicates less than 50% inhibition at 10 μM)”. The “A11: inhibition of radioligand binding, mouse urotensin (mUR2)” value (Mouse urotensin (mUR2); [125I]-Urotensin II) was “− (“−” indicates less than 50% inhibition at 10 μM)”, the “A7: inhibition of radioligand binding, human μ-opioid (MOP)” value (Human μ-opioid (MOP); [3H]-Naloxone) was “− (“−” indicates less than 50% inhibition at 10 μM)” and the “A2: inhibition of radioligand binding, human κ-opioid (KOP)” value (Human κ-Opioid (KOP); [3H]-Diprenorphine) was “− (“−” indicates less than 50% inhibition at 10 μM)”. The “A6: inhibition of radioligand binding, human melanin-concentrating hormone (MCH1)” value ([2]; [125I]-S36057) was “− (“−” indicates less than 50% inhibition at 10 μM)” and the “A10: inhibition of radioligand binding, human opioid (ORL1)” value (Human opioid (ORL1); [125I]-Nociceptin) was “− (“−” indicates less than 50% inhibition at 10 μM)”.

In the case of `NCCC(=O)NC1C(OCc2ccc3ccccc3c2)OC(COCc2ccc3ccccc3c2)C(O)C1OCc1ccccc1` (stereo not drawn) [compound 387], the “A3: inhibition of radioligand binding” value (Human Melanocortin (MC3); [125I]-NDP-αMSH, human MC3 membranes) is reported as “+ (“+” indicates greater than 50% inhibition at 10 μM)”, the “A8: inhibition of radioligand binding” value (Human neurokinin (NK1); [125I]-Substance P, human NK1 membranes) is reported as “+ (“+” indicates greater than 50% inhibition at 10 μM)” and the “A5: inhibition of radioligand binding” value (Human melanocortin (MC5); [125I]-NDP-αMSH, human MC5 membranes) is reported as “+ (“+” indicates greater than 50% inhibition at 10 μM)”. For the same molecule, the “A1: inhibition of radioligand binding” value (Human δ-opioid (DOP); [3H]-Bremazocine, human DOP membranes) was “− (“−” indicates less than 50% inhibition at 10 μM)”, the “A4: inhibition of radioligand binding” value (Human Melanocortin (MC4); [125I]-NDP-αMSH, human MC4 membranes) was “+ (“+” indicates greater than 50% inhibition at 10 μM)” and the “A9: inhibition of radioligand binding” value ([1]; [125I]-PYY, human NPY-Y1 membranes) was “− (“−” indicates less than 50% inhibition at 10 μM)”. The “A11: inhibition of radioligand binding” value (Mouse urotensin (mUR2); [125I]-Urotensin II, mouse mUR2 membranes) was “− (“−” indicates less than 50% inhibition at 10 μM)”, the “A7: inhibition of radioligand binding” value (Human μ-opioid (MOP); [3H]-Naloxone, human MOP membranes) was “− (“−” indicates less than 50% inhibition at 10 μM)” and the “A2: inhibition of radioligand binding” value (Human κ-Opioid (KOP); [3H]-Diprenorphine, human KOP membranes) was “− (“−” indicates less than 50% inhibition at 10 μM)”. For the same molecule, the “A6: inhibition of radioligand binding” value ([2]; [125I]-S36057, human MCH1 membranes) was “− (“−” indicates less than 50% inhibition at 10 μM)” and the “A10: inhibition of radioligand binding” value (Human opioid (ORL1); [125I]-Nociceptin, human ORL1 membranes) was “− (“−” indicates less than 50% inhibition at 10 μM)”.

In the case of `CO[C@H]1[C@H](O)[C@@H](COCc2ccc3ccccc3c2)OC(OCc2ccccc2)[C@@H]1NC(=O)CCCNC(=N)N` (stereo partly drawn) [compound 89], the “A3 radioligand binding inhibition” value (Human Melanocortin (MC3); human melanocortin MC3 membranes) is reported as “− (“−” indicates less than 50% inhibition at 10 μM)”, the “A8 radioligand binding inhibition” value (Human neurokinin (NK1); human neurokinin NK1 membranes) is reported as “+ (“+” indicates greater than 50% inhibition at 10 μM)” and the “A5 radioligand binding inhibition” value (Human melanocortin (MC5); human melanocortin MC5 membranes) is reported as “− (“−” indicates less than 50% inhibition at 10 μM)”. The “A1 radioligand binding inhibition” value (Human δ-opioid (DOP); human δ-opioid (DOP) membranes) was “− (“−” indicates less than 50% inhibition at 10 μM)”, the “A4 radioligand binding inhibition” value (Human Melanocortin (MC4); human melanocortin MC4 membranes) was “− (“−” indicates less than 50% inhibition at 10 μM)” and the “A9 radioligand binding inhibition” value ([1]; human NPY-Y1 membranes) was “− (“−” indicates less than 50% inhibition at 10 μM)”. For the same molecule, the “A11 radioligand binding inhibition” value (Mouse urotensin (mUR2); mouse urotensin mUR2 membranes) was “− (“−” indicates less than 50% inhibition at 10 μM)”, the “A7 radioligand binding inhibition” value (Human μ-opioid (MOP); human μ-opioid (MOP) membranes) was “+ (“+” indicates greater than 50% inhibition at 10 μM)” and the “A2 radioligand binding inhibition” value (Human κ-Opioid (KOP); human κ-opioid (KOP) membranes) was “− (“−” indicates less than 50% inhibition at 10 μM)”. For the same molecule, the “A6 radioligand binding inhibition” value ([2]; human MCH1 membranes) was “− (“−” indicates less than 50% inhibition at 10 μM)” and the “A10 radioligand binding inhibition” value (Human opioid (ORL1); human ORL1 membranes) was “− (“−” indicates less than 50% inhibition at 10 μM)”.

Source: patent US20080009418A1, “Selective Inhibitors” (Alchemia LTD., priority 2004, published 2008)
